Experimental data as given in US10647688B2, “Compounds, synthesis method thereof and use of same in medicine and in cosmetics” (GALDERMA RESEARCH & DEVELOPMENT, priority 2014, dated 2020).

What was measured:
Type in all cases: cell-based
RARα = target: T1, RARα (Homo sapiens, UniProt P10276); test: Transactivation reporter test (luciferase) in HeLa ERE Luc-hRAR cells, RARα; conditions: for EC50: HeLa ERE Luc-hRAR cells, dose-response 10000 nM-0.04 nM, 18 hours incubation; for RARα Comments: agonist type (total/partial); for RARα Efficacy: normalized to basal control and maximum efficacy control CD0193 100 nM
T1 construct: expressed in transfected cells; line from Prof; Ballaguer, INSERM 439, Montpellier
T1 sequence (P10276 183-417 limits assumed): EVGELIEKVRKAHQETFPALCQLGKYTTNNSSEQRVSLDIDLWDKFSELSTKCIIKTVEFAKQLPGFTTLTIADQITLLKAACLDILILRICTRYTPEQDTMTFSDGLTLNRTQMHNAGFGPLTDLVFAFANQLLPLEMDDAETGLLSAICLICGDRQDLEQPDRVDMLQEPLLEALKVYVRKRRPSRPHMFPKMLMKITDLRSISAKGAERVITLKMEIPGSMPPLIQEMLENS
Procedure: (§1) The activity of our molecules on the RAR is measured using a recombinant line expressing the ligand-biding domain (LBD) of RAR fused with the DNA binding domain (DBD) of the estrogen receptors. The specific transactivation of the receptor on the receptor estrogen response element (ERE) leads to transcription of luciferase. The expression of this reporter gene is quantified by luminescence after addition of its substrate, luciferin.
(§2) This line was produced by Prof. Ballaguer (INSERM 439, Montpellier) after stable transfection of HeLa by ERE-βGlob-Luc-SV-Neo and RAR(α, β, γ)-ER-DBD-puro plasmids.
(§3) The compounds are evaluated by dose-response (10000 nM-0.04 nM) normalized relative to a basal control and a maximum efficacy control (CD0193, reference agonist with 100 nM saturating concentration): Y=((X−0%)/(100%−0%))*100.
(§4) The affinity (EC50 in nM) and efficacy (in %) are measured using the XLfit (IDBS) software according to a four-parameter nonlinear regression (model 205).
(§5) HeLa ERE Luc-hRAR cells are inoculated on 96 well microplates (10,000 cell/100 μL). After 4 hours of incubation at 37° C./5% CO2, they are treated with 5 μL of 20× products (0.1 final DMSO).

RARβ = target: T2, RARβ (Homo sapiens, UniProt P10826); test: Transactivation reporter test (luciferase) in HeLa ERE Luc-hRAR cells, RARβ; conditions: for EC50: HeLa ERE Luc-hRAR cells, dose-response 10000 nM-0.04 nM, 18 hours incubation; for RARβ Comments: agonist type (total/partial); for RARβ Efficacy (%): normalized to basal control and maximum efficacy control CD0193 100 nM
T2 construct: expressed in transfected cells; line from Prof; Ballaguer, INSERM 439, Montpellier
T2 sequence (P10826 183-417 limits assumed): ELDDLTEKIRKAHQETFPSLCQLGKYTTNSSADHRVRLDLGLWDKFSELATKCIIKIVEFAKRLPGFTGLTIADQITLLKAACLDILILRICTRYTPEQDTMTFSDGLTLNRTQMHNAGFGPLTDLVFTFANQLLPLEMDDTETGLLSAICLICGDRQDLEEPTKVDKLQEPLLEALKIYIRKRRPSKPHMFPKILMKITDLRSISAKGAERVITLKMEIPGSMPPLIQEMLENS
Procedure: as §1, §2, §3, §4, §5

RARγ = target: T3, RARγ (Homo sapiens, UniProt P13631); test: Transactivation reporter test (luciferase) in HeLa ERE Luc-hRAR cells, RARγ; conditions: for EC50: HeLa ERE Luc-hRAR cells, dose-response 10000 nM-0.04 nM, 18 hours incubation; for RARγ Comments: agonist type (total/partial); for RARγ Efficacy (%): normalized to basal control and maximum efficacy control CD0193 100 nM
T3 construct: expressed in transfected cells; line from Prof; Ballaguer, INSERM 439, Montpellier
T3 sequence (P13631 185-419 limits assumed): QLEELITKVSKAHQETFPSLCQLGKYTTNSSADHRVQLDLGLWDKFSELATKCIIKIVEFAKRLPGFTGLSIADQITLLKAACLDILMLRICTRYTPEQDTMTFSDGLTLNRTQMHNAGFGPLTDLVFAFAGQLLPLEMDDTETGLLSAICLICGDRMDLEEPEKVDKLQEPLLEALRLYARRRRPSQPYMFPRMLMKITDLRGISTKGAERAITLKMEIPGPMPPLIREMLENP
Procedure: as §1, §2, §3, §4, §5

## CCOc1ccc(-c2noc(-c3ccc(C(=O)O)cc3)n2)cc1C(C)(C)C [4-[3-(3-tert-butyl-4-ethoxy-phenyl)-[1,2,4]oxadiazol-5-yl]-benzoic acid]
RARα
  EC50: 255 nM
  RARα Comments: Total
  RARα Efficacy: 105%
RARβ
  EC50: 3.8 nM
  RARβ Comments: Total agonist
  RARβ Efficacy (%): 92%
RARγ
  EC50: 9.3 nM
  RARγ Comments: Total
  RARγ Efficacy (%): 96%

## CCOCOc1ccc(-c2noc(-c3ccc(C(=O)O)cc3)n2)cc1C(C)(C)C [4-[3-(3-tert-butyl-4-ethoxymethoxy-phenyl)-[1,2,4]oxadiazol-5-yl]-benzoic acid]
RARα
  EC50: 650 nM
  RARα Comments: Total
  RARα Efficacy: 104%
RARβ
  EC50: 6.2 nM
  RARβ Comments: Total agonist
  RARβ Efficacy (%): 95%
RARγ
  EC50: 10 nM
  RARγ Comments: Total
  RARγ Efficacy (%): 88%

## CC(C)(C)c1cc(-c2noc(-c3ccc(C(=O)O)cc3)n2)ccc1O [4-[3-(3-tert-butyl-4-hydroxy-phenyl)-[1,2,4]oxadiazol-5-yl]-benzoic acid]
RARα
  EC50: 107 nM
  RARα Comments: Total
  RARα Efficacy: 106%
RARβ
  EC50: 3 nM
  RARβ Comments: Total agonist
  RARβ Efficacy (%): 110%
RARγ
  EC50: 2.4 nM
  RARγ Comments: Total
  RARγ Efficacy (%): 110%

## COc1ccc(-c2cnc(-c3ccc(C(=O)O)cc3)s2)cc1C(C)(C)C [4-[5-(3-tert-butyl-4-methoxy-phenyl)-thiazol-2-yl]-benzoic acid]
RARα
  EC50: 109 nM
  RARα Comments: partial agonist
  RARα Efficacy: 53%
RARβ
  EC50: 164 nM
  RARβ Comments: partial agonist
  RARβ Efficacy (%): 46%
RARγ
  EC50: 66 nM
  RARγ Comments: partial agonist
  RARγ Efficacy (%): 40%

## CC1(C)CCC(C)(C)c2cc(-c3cnc(-c4ccc(C(=O)O)cc4)s3)ccc21 [4-[5-(5,5,8,8-tetramethyl-5,6,7,8-tetrahydro-naphthalen-2-yl)-thiazol-2-yl]-benzoic acid]
RARα
  EC50: 9790 nM
  RARα Comments: Total
  RARα Efficacy: 64%
RARβ
  EC50: 52 nM
  RARβ Comments: Total agonist
  RARβ Efficacy (%): 110%
RARγ
  EC50: 162 nM
  RARγ Comments: Total
  RARγ Efficacy (%): 78%

## CCOCOc1ccc(-c2noc(-c3ccc(C(=O)O)cc3)n2)cc1C1(C)CCCCC1 [4-{3-[4-ethoxymethoxy-3-(1-methyl-cyclohexyl)-phenyl]-[1,2,4]oxadiazol-5-yl}-benzoic acid]
RARα
  EC50: 90 nM
  RARα Comments: Total
  RARα Efficacy: 80%
RARβ
  EC50: 0.56 nM
  RARβ Comments: Total agonist
  RARβ Efficacy (%): 107%
RARγ
  EC50: 0.9 nM
  RARγ Comments: Total
  RARγ Efficacy (%): 102%

## CCCOc1ccc(-c2cnc(-c3ccc(C(=O)O)cc3)s2)cc1C1(C)CCCCC1 [4-{5-[3-(1-methyl-cyclohexyl)-4-propoxy-phenyl]-thiazol-2-yl}-benzoic acid]
RARα
  EC50: 3170 nM
  RARα Comments: Total
  RARα Efficacy: 68%
RARβ
  EC50: 635 nM
  RARβ Comments: Total agonist
  RARβ Efficacy (%): 90%
RARγ
  EC50: 1030 nM
  RARγ Comments: Total
  RARγ Efficacy (%): 74%
